Target: T1, 5-hydroxytryptamine receptor 1A (Rattus norvegicus, UniProt P19327)
T1 sequence (P19327 whole entry): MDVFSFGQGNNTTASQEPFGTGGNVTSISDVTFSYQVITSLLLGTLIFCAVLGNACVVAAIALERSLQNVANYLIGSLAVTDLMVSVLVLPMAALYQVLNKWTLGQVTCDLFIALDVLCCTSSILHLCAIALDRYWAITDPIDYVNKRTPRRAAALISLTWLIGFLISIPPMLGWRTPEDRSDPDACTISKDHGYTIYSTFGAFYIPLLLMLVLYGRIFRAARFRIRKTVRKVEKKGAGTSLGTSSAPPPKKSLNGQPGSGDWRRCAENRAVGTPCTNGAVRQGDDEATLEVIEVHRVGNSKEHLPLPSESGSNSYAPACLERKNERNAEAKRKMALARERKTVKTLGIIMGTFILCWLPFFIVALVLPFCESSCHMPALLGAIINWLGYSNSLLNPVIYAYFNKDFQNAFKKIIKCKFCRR
Test: Inhibitory affinity constant against 5-hydroxytryptamine 1A receptor

- Ki: 10.5 nM
Compound: CC1(C)CC(=O)N(CCCCN2CCN(c3ccc4ccccc4n3)CC2)C(=O)C1

Reference: ChEMBL document CHEMBL1128360 (J Med Chem, 1995)
